The record followed here is patent US5523314A, “Compounds useful as hypoglycemic agents and for treating Alzheimer's disease” (priority 1994, dated 1996).

Experiment [1] relates to plasma glucose concentration. Put plainly: Long-term hypoglycemic activity, compound in diet, ZDF rats (Table 4). The conditions noted are these: 0.1% in diet. Format: in vivo, 8 week old male Zucker Diabetic Fatty rat. As to the method:
(§1) Finally, the long-term hypoglycemic activity of the compounds of the present invention was tested in yet another in vivo test system. This long-term test system entailed incorporating test compound into the test animal's diet at various concentrations (control animal's diet contained no test compound). Such diet was then fed to the test or control animals for either 14 or 21 days. Each test or control animal was then bled from the tail (200-400 μl sample of blood) at 0 (before diet started), 7, 14 and, if appropriate, 21 and 28 days after diet administration was started. Plasma samples were then obtained from each blood sample collected and the glucose concentration of such plasma samples was determined enzymatically.
(§2) Columns 4-8 provide the plasma glucose concentration at days 0, 7, 14 and, if appropriate, 21 and 28, respectively, for the animals tested. Glucose lowering was not associated with depressed diet consumption.

The next experiment has as its target T1, Human liver cathepsin D (Homo sapiens, UniProt P07339).
T1 construct: purchased Athens Research and Technology, Athens, Ga; host or cells: human liver
Put plainly: Cathepsin D inhibition, fluorometric assay (Tables 5 and 6). In kind it is biochemical. The conditions noted are these: for inhibition at 4.15 µg/mL (stock): Compound Stock Concentration 4.15 μg/ml; for inhibition at 8.3 µg/mL (stock): Compound Stock Concentration 8.3 μg/ml; for inhibition at 10 µg/mL (stock): Compound Stock Concentration 10.0 μg/ml. Summed up:
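Human liver cathepsin D at 500 ng/mL in 200 mM NaOAc pH 4.5, 150 mM NaCl, incubated 30 minutes at 37° C. Reaction stopped with microsomal leucine aminopeptidase (pH 8.0), which over two hours at 37° C releases AMC from cleavage products for fluorometric reading; aminopeptidase inhibition checked with Leu-pNA.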

In another experiment the test system is β-amyloid protein. Put plainly: β-amyloid protein production inhibition in 293 751 SWE and CHO 751 SWE cells, ELISA (Table 7). In kind it is cell-based. The conditions noted are these: normalized for cytotoxicity; for inhibition at 10 µg/mL (stock): Compound Stock Concentration 10.0 μg/ml; for inhibition at 0.31 µg/mL (stock): Compound Stock Concentration 0.31 μg/ml; for inhibition at 0.62 µg/mL (stock): Compound Stock Concentration 0.62 μg/ml; for inhibition at 1.25 µg/mL (stock): Compound Stock Concentration 1.25 μg/ml; for inhibition at 2.5 µg/mL (stock): Compound Stock Concentration 2.5 μg/ml; for inhibition at 5 µg/mL (stock): Compound Stock Concentration 5.0 μg/ml. As to the method:
Two cell lines (human kidney cell line 293 and Chinese hamster ovary cell line CHO) were stably transfected with the gene for APP751 containing the double mutation Lys-651-Met-652 to Asn-651-Leu-652 (APP-751 numbering) commonly called the Swedish mutation using the method described in Citron et al., Nature 360:672-674 (1992). The transfected cell lines were designated as 293 751 SWE and CHO 751 SWE, and were plated in Corning 96 well plates at 2.5×10^4 or 1×10^4 cells per well respectively in Dulbecco's minimal essential media (DMEM) plus 10% fetal bovine serum. […] These compound stocks were prepared by dissolving a sufficient quantity of the particular compound to be tested in DMSO such that various concentrations were obtained. After this pretreatment period, the conditioned media was removed and replaced with fresh conditioned media and the cells were incubated for an additional two hours.
After treatment, plates were centrifuged in a Beckman GPR at 1200 rpm for five minutes at room temperature to pellet cellular debris from the conditioned media. From each well, 100 μL of conditioned media were transferred into an ELISA plate precoated with antibody 266 [Seubert et al., Nature, 359:325-327 (1992)] and stored at 4° C. overnight prior to the completion of the ELISA assay the next day.
Cytotoxic effects of the compounds were measured by a modification of the method of Hansen et al., J. Immun. Meth. 119:203-210 (1989). To the cells remaining in the tissue culture plate, was added 25 μL of a 3-(4,5-dimethylthiazol-2-yl)-2,5-diphenyltetrazolium bromide (MTT) stock solution (5 mg/mL) to a final concentration of 1 mg/mL. Cells were incubated at 37° C. for one hour, and cellular activity was stopped by the addition of an equal volume of MTT lysis buffer (20% w/v sodium dodecylsulfate in 50% DMF, pH 4.7). Complete extraction was achieved by overnight shaking at room temperature. The difference in the OD562nm and the OD650nm was measured in a Molecular Devices UVmax microplate reader as an indicator of the cellular viability.
The results of the β-amyloid protein ELISA were fit to a standard curve and expressed as ng/mL β-amyloid protein peptide. In order to normalize for cytotoxicity, these β-amyloid protein results were divided by the cytotoxicity results and expressed as a percentage of the results from a drug-free control.

The test system of experiment [2] is blood glucose level. Put plainly: Hypoglycemic activity in obese diabetic mice (Table 1). The conditions noted are these: Mus musculus, ip, intraperitoneal. In kind it is in vivo, male viable yellow obese-diabetic mice. In short, it runs like this:
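Male viable yellow obese-diabetic mice, six per group, dosed intraperitoneally once with compound in saline containing 2% Emulphor. Blood glucose measured by glucose oxidase before dosing and at 2 and 4 h. Values are the 2 h and 4 h glucose as % of pre-dose level.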

The test system of experiment [3] is blood glucose level. Put plainly: Hypoglycemic activity in normal fed rats (Table 2). Format: in vivo, male Sprague Dawley rats. The conditions noted are these: Rattus norvegicus, 200 mg/kg, oral. The method, then:
The procedure used in this test system is described below.
The desired dose level of each test formulation was administered to four rats by oral […] at the beginning of the experiment. Blood glucose levels were determined immediately before the first dose and at 3 and 5 hours thereafter by an enzymatic procedure employing glucose oxidase and peroxidase coupled with a chromogenic oxygen acceptor. A mean was taken of the 4 values obtained before the first dose and at the 3 and 5 hour intervals.

The subject of experiment [4] is plasma glucose concentration. Put plainly: Long-term hypoglycemic activity, compound in diet, A^vy /a mice (Table 4). The conditions noted are these: 0.1% in diet, Male A^vy /a (Harlan). Format: in vivo, viable yellow mouse. As to the method:
as §1, §2

Setting [5] is: 2 h, 2 hrs, read-out: Percent of Initial Blood Glucose Level After 2 hrs.
The mark [6] stands for this setting: 4 h, 4 hrs, read-out: Percent of Initial Blood Glucose Level After 4 hrs.
Setting [7] is: 3 hrs, read-out: Percent of Initial Blood Glucose Level After 3 hrs.
The mark [8] stands for this setting: 5 hrs, read-out: Percent of Initial Blood Glucose Level After 5 hrs.

Read-outs that look alike come from different tables or passages of the source.

T1 sequence (P07339 169-412 limits assumed): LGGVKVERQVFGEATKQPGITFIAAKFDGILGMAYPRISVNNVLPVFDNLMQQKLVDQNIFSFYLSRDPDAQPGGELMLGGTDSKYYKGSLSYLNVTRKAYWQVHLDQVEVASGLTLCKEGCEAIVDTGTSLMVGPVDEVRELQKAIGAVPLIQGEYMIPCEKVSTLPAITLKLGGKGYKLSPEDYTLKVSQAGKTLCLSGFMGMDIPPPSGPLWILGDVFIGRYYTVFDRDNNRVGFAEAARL
T1 sequence (P07339 65-161 limits assumed): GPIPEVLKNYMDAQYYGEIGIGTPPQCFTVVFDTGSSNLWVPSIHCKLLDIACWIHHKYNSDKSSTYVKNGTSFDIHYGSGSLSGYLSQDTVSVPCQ

With `CCCCCOc1c(OC)cc(C=C2SC(=S)NC2=O)cc1OC` [Example 70, 5-[(3,5-dimethoxy-4-pentoxyphenyl)methylene]-2-thioxo-4-thiazolidinone], the “Plasma Glucose Concentration” value in experiment [1] (day 0 (before diet started)) stood at 300 mg/dL; in experiment [1] (day 7), 190 mg/dL; in experiment [1] (day 14), 195 mg/dL. On Human liver cathepsin D, this compound came in with an IC50 of 5.4 µM. In addition, on Human liver cathepsin D, the inhibition at 4.15 µg/mL (stock) was 66%. The compound further yielded an inhibition at 10 µg/mL (stock) with β-amyloid protein of 38%.
Take `CCCCCCCOc1ccc(C=C2SC(=S)N(N(C)C)C2=O)cc1OC` [Example 81, 5-[(3-methoxy-4-heptoxyphenyl)methylene]-2-thioxo-3-dimethylamino-4-thiazolidinone]: at Human liver cathepsin D, the concentration for half-maximal inhibition (IC50) was found to be 319 µM and the inhibition at 8.3 µg/mL (stock) is 21%. Moreover, the inhibition at 10 µg/mL (stock) in the experiment on β-amyloid protein came to 100%.
Take `O=C1NC(=S)SC1=Cc1ccc(-c2ccccc2)cc1` [Example 42, 5-[[(1,1'-biphenyl)-4-yl]methylene]-2-thioxo-4-thiazolidinone]: the response vs control in vivo at 50 mg/kg in the experiment on blood glucose level [2] (setting [5]) came to 87 ± 8%. Further, the response vs control in vivo at 50 mg/kg in the experiment on blood glucose level [2] (setting [6]) amounted to 70 ± 8%. Further, at Human liver cathepsin D, the IC50 amounted to 1.7 µM, the inhibition at 4.15 µg/mL (stock) turned out to be 78% and the inhibition at 10 µg/mL (stock) amounted to 87.5%. In the experiment with β-amyloid protein, this compound displayed an inhibition at 0.31 µg/mL (stock) of 8%, an inhibition at 0.62 µg/mL (stock) of 11%, an inhibition at 1.25 µg/mL (stock) of 14% and an inhibition at 2.5 µg/mL (stock) of 16%. In the experiment with β-amyloid protein, this compound displayed an inhibition at 5 µg/mL (stock) of 35% and an inhibition at 10 µg/mL (stock) of 51%.
Regarding `O=C1NC(=S)SC1=Cc1ccc(Oc2ccccc2)cc1` [Example 5, 5-[(4-phenoxyphenyl)methylene]-2-thioxo-4-thiazolidinone], the response vs control in vivo at 50 mg/kg with blood glucose level [2] (setting [5]) was 79 ± 4%. The response vs control in vivo at 50 mg/kg with blood glucose level [2] (setting [6]) was determined as 71 ± 3%. At Human liver cathepsin D, the half-inhibitory concentration (IC50) came to 3.6 µM, the inhibition at 8.3 µg/mL (stock) was 100% and the inhibition at 10 µg/mL (stock) stood at 76%. In the experiment on β-amyloid protein, this compound displayed an inhibition at 10 µg/mL (stock) of 47%.
On Human liver cathepsin D, `O=C1NC(=S)SC1=Cc1cccc(Oc2ccccc2)c1` [Example 77, 5-[(3-phenoxyphenyl)methylene]-2-thioxo-4-thiazolidinone] yielded an IC50 of 3.7 µM, an inhibition at 4.15 µg/mL (stock) of 64% and an inhibition at 10 µg/mL (stock) of 87%. The inhibition at 10 µg/mL (stock) with β-amyloid protein was determined as 25%.
Take `CCCCCCCOc1ccc(C=C2SC(=S)NC2=O)cc1OC` [Example 31, 5-[(3-methoxy-4-heptoxyphenyl)methylene]-2-thioxo-4-thiazolidinone]: the response vs control in vivo at 50 mg/kg in the experiment with blood glucose level [2] (setting [5]) was found to be 76 ± 7%. The response vs control in vivo at 50 mg/kg with blood glucose level [2] (setting [6]) turned out to be 76 ± 5%. The response vs control in vivo at 200 mg/kg in the experiment with blood glucose level [3] (setting [7]) worked out at 95%. In the experiment on blood glucose level [3] (setting [8]), the response vs control in vivo at 200 mg/kg amounted to 92%. At Human liver cathepsin D, half-maximal inhibition (IC50) required 1.9 µM, the inhibition at 4.15 µg/mL (stock) is 69.5% and the inhibition at 10 µg/mL (stock) was 88.5%. Also, in the experiment with β-amyloid protein, the inhibition at 0.31 µg/mL (stock) stood at 0%, the inhibition at 0.62 µg/mL (stock) was found to be 7%, the inhibition at 1.25 µg/mL (stock) stood at 15% and the inhibition at 2.5 µg/mL (stock) worked out at 28%. Besides, in the experiment with β-amyloid protein, the inhibition at 5 µg/mL (stock) was 37% and the inhibition at 10 µg/mL (stock) was 57%.
As to `CC(C)(C)c1cc(C=C2SC(=S)NC2=O)cc(CSc2ccccc2)c1O` [Example 71], the “Plasma Glucose Concentration” value in experiment [1] (day 0 (before diet started)) is 311 mg/dL; in experiment [1] (day 7), 237 mg/dL; in experiment [1] (day 14) it was 232 mg/dL. The compound also returned an IC50 against Human liver cathepsin D (50% inhibition of cathepsin D) of 2.1 µM. The inhibition at 8.3 µg/mL (stock) against Human liver cathepsin D was 94%. The inhibition at 10 µg/mL (stock) on Human liver cathepsin D worked out at 76%; with β-amyloid protein it was 65%.
Regarding `CCOc1ccc(C=C2SC(=S)NC2=O)cc1OCC` [Example 38, 5-[(3,4-diethoxyphenyl)methylene]-2-thioxo-4-thiazolidinone], the values for the response vs control in vivo at 10 mg/kg in the experiment with blood glucose level [2] (setting [5]) and in the experiment with blood glucose level [2] (setting [6]) were 72 ± 4% and 71 ± 6%, respectively. The response vs control in vivo at 25 mg/kg was determined as 69 ± 9% in the experiment on blood glucose level [2] (setting [5]) and 65 ± 7% in the experiment on blood glucose level [2] (setting [6]). Moreover, the response vs control in vivo at 200 mg/kg was determined as 90% in the experiment on blood glucose level [3] (setting [7]) and 74% with blood glucose level [3] (setting [8]). Further, the “Plasma Glucose Concentration” value is 340 mg/dL in experiment [4] (day 0 (before diet started)); 351 mg/dL in experiment [4] (day 7); 328 mg/dL in experiment [4] (day 14); 303 mg/dL in experiment [4] (day 21); 331 mg/dL in experiment [4] (day 28).
Consider `CCCCCOc1ccc(CC2SC(=S)NC2=O)cc1OC` (stereo not drawn) [Example 64, 5-[(3-methoxy-4-pentoxyphenyl)methyl]-2-thioxo-4-thiazolidinone], for which the response vs control in vivo at 200 mg/kg was found to be 91% with blood glucose level [3] (setting [7]) and 89% in the experiment with blood glucose level [3] (setting [8]). The “Plasma Glucose Concentration” value was found to be 339 mg/dL in experiment [1] (day 0 (before diet started)), 187 mg/dL in experiment [1] (day 7) and 182 mg/dL in experiment [1] (day 14).
